Measurements from US20220409614A1, “TREATING BEHAVIORAL AND PSYCHOLOGICAL SYMPTOMS IN DEMENTIA PATIENTS” (SUVEN LIFE SCIENCES LIMITED, priority 2019, published 2022).

Tests used:
[1] = tested on: subjects with moderate AD; assay: Phase 2 study in moderate AD, NPI-12 (Neuropsychiatric Inventory) assessment; type: in vivo, humans; conditions: for effect on NPI domains as measured by the NPI-12 scale: overall statement
From the text: The study consisted of a 2 to 4-week screening period, followed by a 26-week double-blind treatment period and a 4-week single-blind placebo washout period. […] Population: The study population included male or female subjects, 50 to 85 years of age, with moderate dementia due to probable AD (MMSE 12-20, both inclusive) based on the National Institute of Neurological and Communicative Diseases and Stroke/Alzheimer's Disease and Related Disorders Association ([…]) criteria, diagnosed at least 1 year prior to the study and receiving stable doses for at least 3 months of donepezil HCl (10 mg qd) and either memantine HCl (10 mg bid) or […]® (28 mg memantine HCl extended-release qd) or the combination therapy, NamzaricTM (28 mg memantine HCl extended-release/10 mg donepezil HCl) qd. […] Throughout the study, all subjects continued to receive donepezil HCl (10 mg qd) and memantine HCl (10 mg bid) or […]® (28 mg memantine HCl extended-release qd) or the combination therapy, NamzaricTM (28 mg memantine HCl extended-release/10 mg donepezil HCl) qd. […] During the washout period, all subjects were received placebo in addition to donepezil HCl and memantine HCl. The NPI is a 12-item structured interview with a caregiver designed to assess behavioral disturbances in patients with dementia. The NPI comprises 10 behavioral (hallucinations, delusions, agitation/aggression, dysphoria/depression, anxiety, irritability, disinhibition, euphoria/elation, apathy and aberrant motor behavior), and neurovegetative items (sleep and night-time behavior change, appetite and eating change). The behavioral domains are assessed in terms of frequency, severity and distress. Each item consists of a screening question and several sub-questions which are rated no (not present) or yes (present). Each item is then rated for frequency (a 4-point scale from 1 [occasionally] to 4 [very frequently]), severity (a 3-point scale from 1 [mild] to 3 [marked]), and caregiver distress (a 6-point scale from 0 [not at all] to 5 [very severely or extremely]). The total score 12 items of the frequency and severity ratings range from 0 to 144 and the total score 12 items of caregiver distress ranges from 0 to 60. The NPI was administered to the subject's caregiver and scored by a qualified, trained rater at baseline and Weeks 4, 13 and 26. Data was analyzed using a mixed effects model for repeated measures (MMRM). The model included fixed categorical factors for treatment, week, treatment-by-week interaction, and APO-E status (carrier-one allele, carrier-two alleles, and non-carrier), as well as a continuous covariate of baseline score, the baseline score-by-week interaction, age, and baseline MMSE score. In subgroup analysis, stratification was based on the baseline symptoms and/or symptom emergence.

[2] = tested on: subjects with moderate AD; assay: Phase 2 study in moderate AD, safety and tolerability assessment; design: species or system humans; conditions: in vivo
Description: The study consisted of a 2 to 4-week screening period, followed by a 26-week double-blind treatment period and a 4-week single-blind placebo washout period.
Throughout the study, all subjects continued to receive donepezil HCl (10 mg qd) and memantine HCl (10 mg bid) or Namenda XR® (28 mg memantine HCl extended-release qd) or the combination therapy, Namzaric™ (28 mg memantine HCl extended-release/10 mg donepezil HCl) qd.
The safety assessed by monitoring adverse events, physical examinations, vital signs, clinical laboratory tests and electrocardiograms.

[3] = tested on: subjects with moderate AD; assay: Phase 2 study in moderate AD, ADAS-Cog 11 assessment; type: in vivo, humans; conditions: for change from baseline in ADAScog-11 scores vs placebo: 50 mg
From the text: The study consisted of a 2 to 4-week screening period, followed by a 26-week double-blind treatment period and a 4-week single-blind placebo washout period. […] Population: The study population included male or female subjects, 50 to 85 years of age, with moderate dementia due to probable AD (MMSE 12-20, both inclusive) based on the National Institute of Neurological and Communicative Diseases and Stroke/Alzheimer's Disease and Related Disorders Association ([…]) criteria, diagnosed at least 1 year prior to the study and receiving stable doses for at least 3 months of donepezil HCl (10 mg qd) and either memantine HCl (10 mg bid) or […]® (28 mg memantine HCl extended-release qd) or the combination therapy, NamzaricTM (28 mg memantine HCl extended-release/10 mg donepezil HCl) qd. […] Throughout the study, all subjects continued to receive donepezil HCl (10 mg qd) and memantine HCl (10 mg bid) or […]® (28 mg memantine HCl extended-release qd) or the combination therapy, NamzaricTM (28 mg memantine HCl extended-release/10 mg donepezil HCl) qd. […] During the washout period, all subjects were received placebo in addition to donepezil HCl and memantine HCl. The Alzheimer's Disease Assessment Scale-Cognitive Subscale (ADAS-Cog) was developed to assess the level of cognitive dysfunction in AD. It is also used for assessing the efficacy of anti-dementia treatments. The ADAScog-11 is a brief measure of cognition, including word recall, commands, constructional praxis, naming objects and fingers, ideational praxis, orientation, word recognition task, remembering test instructions, spoken language ability, word-finding difficulty, and comprehension of spoken language. The test is scored by an administrator who adds up points for the errors in each task for a total score ranging from 0 to 70. The greater the dysfunction, the greater the score. A score of 70 represents the most severe impairment. Data was analyzed using a mixed effects model for repeated measures (MMRM). The model included fixed categorical factors for treatment, week, treatment-by-week interaction, and APO-E status (carrier-one allele, carrier-two alleles, and non-carrier), as well as a continuous covariate of baseline score, the baseline score-by-week interaction, age, and baseline MMSE score. In subgroup analysis, stratification was based on the baseline symptoms and/or symptom emergence.

[4] = baseline domain score ≥1, mITT, 50 mg, Week 4
[5] = baseline domain score ≥1, mITT, 50 mg, Week 13
[6] = baseline domain score ≥1, mITT, 50 mg, Week 26
[7] = baseline domain score ≥1, mITT, 100 mg, Week 4
[8] = baseline domain score ≥1, mITT, 100 mg, Week 13
[9] = baseline domain score ≥1, mITT, 100 mg, Week 26

## COc1ccc2c(c1)c(CN1CCN(C)CC1)cn2S(=O)(=O)c1ccccc1Br [masupirdine, 1-[(2-bromophenyl)sulfonyl]-5-methoxy-3-[(4-methyl-1-piperazinyl)methyl]-1H-indole]
[1]; 50 mg, Week 4
  change from baseline in mean NPI-12 scores vs placebo: statistically significant treatment differences
[1]; 50 mg, Week 26, no subgroup
  change from baseline in mean agitation/aggression domain scores of NPI-12 vs placebo: statistically significant treatment difference
[1]; Week 13, all 3 treatment arms
  mean NPI-12 scores: remained similar to baseline
[1]; Week 26, masupirdine dose groups
  mean NPI-12 scores: remained similar to baseline
[1]; baseline domain score ≥1, 50 mg, Week 26
  change from baseline in NPI-12 domain sleep and nighttime behavior vs placebo: statistically significant treatment differences
[1]; baseline domain score ≥1, 100 mg, Week 13
  change from baseline in NPI-12 domain sleep and nighttime behavior vs placebo: statistically significant treatment difference
[1]; baseline domain score ≥1, 100 mg, Week 26
  change from baseline in NPI-12 domain sleep and nighttime behavior vs placebo: statistically significant treatment differences
[1]; [4]
  change from baseline in NPI-12 domain aberrant motor behavior vs placebo: statistically significant treatment differences
  change from baseline in NPI-12 domain delusions and/or hallucinations vs placebo: statistically significant treatment difference
  change from baseline in NPI-12 domain sleep and nighttime behavior vs placebo: statistically significant treatment difference
  change from baseline in mean euphoria/elation scores vs placebo: statistically significant treatment differences
  extended composite NPI-12 score domain (agitation/aggression, aberrant motor behavior and sleep and nighttime behavior disorders) vs placebo: statistically significant treatment differences
[1]; [5]
  change from baseline in NPI-12 domain aberrant motor behavior vs placebo: statistically significant treatment difference
  change from baseline in NPI-12 domain delusions and/or hallucinations vs placebo: statistically significant treatment difference
  change from baseline in mean agitation/aggression scores vs placebo: statistically significant treatment difference
  change from baseline in mean euphoria/elation scores vs placebo: statistically significant treatment differences
[1]; [6]
  change from baseline in mean agitation/aggression scores vs placebo: statistically significant treatment difference
  change from baseline in mean euphoria/elation scores vs placebo: statistically significant treatment differences
  extended composite NPI-12 score domain (agitation/aggression, aberrant motor behavior and sleep and nighttime behavior disorders) vs placebo: statistically significant treatment differences
[1]; [7]
  change from baseline in NPI-12 domain delusions and/or hallucinations vs placebo: statistically significant treatment difference
  change from baseline in NPI-12 domain sleep and nighttime behavior vs placebo: statistically significant treatment difference
[1]; [8]
  change from baseline in mean agitation/aggression scores vs placebo: statistically significant treatment difference
  extended composite NPI-12 score domain (agitation/aggression, aberrant motor behavior and sleep and nighttime behavior disorders) vs placebo: statistically significant treatment differences
[1]; [9]
  change from baseline in NPI-12 domain disinhibition vs placebo: statistically significant treatment difference
  extended composite NPI-12 score domain (agitation/aggression, aberrant motor behavior and sleep and nighttime behavior disorders) vs placebo: statistically significant treatment differences
[1]; baseline domain score ≥1, mITT, treatment and time added as covariates
  change from baseline in mean agitation/aggression scores vs placebo: statistically significant treatment differences
[1]; baseline domain score ≥1, treatment added as covariate, 50 mg
  extended composite NPI-12 score domain (agitation/aggression, aberrant motor behavior and sleep and nighttime behavior disorders) vs placebo: statistically significant treatment difference
[1]; baseline domain score ≥1, treatment added as covariate, 50 mg, Week 26
  change from baseline in NPI-12 domain sleep and nighttime behavior vs placebo: statistically significant treatment difference
[1]; baseline domain score ≥1, treatment added as covariate, 100 mg
  change from baseline in NPI-12 domain delusions and/or hallucinations vs placebo: statistically significant treatment difference
[1]; baseline domain score ≥1, treatment added as covariate, 100 mg, Week 26
  change from baseline in NPI-12 domain sleep and nighttime behavior vs placebo: statistically significant treatment difference
[1]; baseline domain score ≥1, treatment and time added as covariates
  change from baseline in NPI-12 domain delusions and/or hallucinations vs placebo: statistically significant treatment differences
[1]; baseline domain score ≥3, mITT, 50 mg, Week 13
  change from baseline in mean agitation/aggression scores vs placebo: statistically significant treatment difference
[1]; baseline domain score ≥3, mITT, 50 mg, Week 26
  change from baseline in mean agitation/aggression scores vs placebo: statistically significant treatment difference
[1]; baseline domain score ≥3, mITT, 100 mg, Week 13
  change from baseline in mean agitation/aggression scores vs placebo: statistically significant treatment difference
[1]; baseline domain score ≥3, treatment added as covariate, 50 mg, Week 26
  change from baseline in mean agitation/aggression scores vs placebo: statistically significant treatment difference
[1]; baseline domain score ≥3, treatment and time added as covariates
  change from baseline in mean agitation/aggression scores vs placebo: statistically significant treatment differences
[1]
  effect on NPI domains as measured by the NPI-12 scale: beneficial effects
[1]; listed as Masupirdine
  effect on NPI domains as measured by the NPI-12 scale: significant treatment effect
[1]; subgroup analyses
  behavioral and psychological symptoms as assessed by NPI-12 subscale scores: significant improvement
[2]
  safety and tolerability: safe and well tolerated with no significant adverse events
[3]; baseline delusion and/or hallucination score ≥1, mITT, Week 26
  change from baseline in ADAScog-11 scores vs placebo: statistically significant treatment difference
[3]; baseline delusion and/or hallucination score ≥1, treatment added as covariate
  change from baseline in ADAScog-11 scores vs placebo: statistically significant treatment difference
[3]; baseline delusion and/or hallucination score ≥1, treatment and time added as covariates
  change from baseline in ADAScog-11 scores vs placebo: statistically significant treatment differences
[3]; subjects with delusions and hallucinations (baseline symptoms)
  cognition as assessed by ADAS-Cog 11 scale: significantly improved cognition
[3]; vs placebo, whole study population
  change from baseline at Week 26 in ADAS-Cog 11 score (primary efficacy endpoint): did not show significant treatment advantage in cognition over placebo
